Columns and labels:
[1] = tested on: P. yoelii sporozoites in HepG2-A16-CD81EGFP cells; assay: P. yoelii sporozoite invasion assay (proliferation of parasite in infected liver cells, immunofluorescence); format: cell-based; details: Plasmodium yoelii, 48 hours, parasite area by immunofluorescence, read-out: EC50 (nM), inhibitory efficacy by the P. yoelii sporozoite invasion assay
Description: Assay for Profiferation of Parasite in Infected Liver Cells
Compounds of the invention can be assayed to measure their capacity to inhibit proliferation of parasites in liver cells. The proliferation is quantified by determine the number of infected cells by immunofluorescence.
Due to the difficulty of successfully infecting immortalized human liver cell lines with the human malaria sporozoites (liver-stage parasite), rodent malaria sporozoites from Plasmodium yoelii (17XNL) and P. berghei (ANKA) are the preferred surrogate. Sporozoites are obtained from Anopheles stephensi mosquitoes supplied by the New York University Insectary, which ships the malaria-infected mosquitoes 10-13 days following the ingestion of an infective blood meal.
A transgenic HepG2 cell line expressing the tetraspanin CD81 receptor (HepG2-A16-CD81^EGFP) is used to increase the infectivity rate of rodent-malaria sporozoites into human cells. HepG2-A16-CD81^EGFP cells are stably transformed to express a GFP-CD81 fusion protein. A continuous in vitro culture of this line was maintained at 37° C. in 4% CO2 in complete media (CM) which contains: DMEM (Invitrogen, Carlsbad, USA) supplemented with 10% FCS, 0.29 mg/ml glutamine, 100 units penicillin and 100 μg/ml streptomycin (SigmaAldrich, USA).
P. yoelii Sporozoite Invasion Assay
Twenty to twenty-six hours prior to sporozoite infection, 7.5×10^3 HepG2-A16-CD81^EGFP cells are seeded into 384-well plates (Aurora 384 IQ-EB black plates with clear bottoms; 50 μl of 1.5×10^5 cells/ml in CM). These plates are incubated at 37° C. with 4% CO2 overnight. Two hours prior to infection, 50 nl of compound dissolved in DMSO (0.1% final DMSO concentration per well) were transferred with a PinTool (GNF Systems) into the assay plates (10 μM final concentration). A 1:3 serial dilution of atovaquone (10 μM at the highest final concentration) and wells treated only with DMSO were used as positive and negative controls, respectively.
Freshly dissected salivary glands from infected mosquitoes were homogenized in a glass tissue grinder, filtered twice through Nylon cell strainers (40 μm pore size, BD Falcon) and counted using a hemocytometer. The assay plate with HepG2-A16-CD81^EGFP cells and compound were then infected with 8×10^3 sporozoitesper well and the plates are subjected to a centrifugal force of 650×g to pellet the sporozoites onto the liver cell monolayer. The assay plate is incubated at 37° C. for 2 hours to permit sporozoite invasion, then the media is aspirated from the media plate, and replaced with 50 μl CM (containing a 5× concentration of penicillin/streptomycin; 500 units penicillin and 0.5 mg streptomycin per ml) per well. 50 nl of compound is re-introduced by PinTool and the assay plate incubated for 48 hours at 37° C. before quantification of infected cells by immunofluorescence.
Atovaquone and uninfected wells were used as controls on each plate. Two replicate plates are tested for each assay.
Immunofluorescence Quantification of Exo-Erythrocytic Forms (EEFs)
After fixing the cells by addition of 12.5 μl of 20% solution of paraformaldehyde (EMS, Hatfield, USA) to each assay well (4% final formaldehyde concentration), membranes were permeabilized with 0.5% Triton-X-100 (Thermo Fisher Scientific) and EEFs were stained using a mouse polyclonal serum raised against the Plasmodium yoelii heat shock protein 70 (PyHSP70), a DyLight 649 goat anti-mouse IgG, Fc(gamma) fragment specific secondary antibody (Jackson Immuno Research, Cat#115-495-071) and the Hoechst 33342 nucleic acid dye (Invitrogen, Carlsbad, USA). Stained EEFs were then quantified using the Opera Confocal High Content Screening System (Perkin Elmer, Waltham, USA). Images were collected using a 20× objective lens (20×/0.45 NA, LWD Plan Fluor, Olympus) at a binning of 2, using a 365 nm Xeon arc lamp illumination to detect the Hoechst-labeled nuclei and 635 nm laser line to excite DyLight649-labeled parasites. […]

[2] = tested on: P. falciparum (NF54 or 3D7 strain) in infected human erythrocytes; assay: Assay for P. falciparum proliferation in infected human blood cells (SYBR Green); format: cell-based; details: Plasmodium falciparum, Erythrocyte; NF54 or 3D7 strain, 72 hours, SYBR Green fluorescence; read-out: EC50 (nM), inhibitory efficacy in delaying P. falciparum proliferation in infected human blood cells
Summary of the method: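 NF54 or 3D7 parasites in O+ human erythrocytes (final 2.5% hematocrit, 0.3% parasitemia) exposed to compound for 72 h at 37° C. under 3% O2. Cells then lysed overnight with SYBR Green I, and fluorescence read at excitation 425 nm / emission 530 nm to give EC50.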

**Q.** For `CN(C(=O)c1ccn2ncc(-c3ccc(C(F)(F)F)cn3)c2c1)c1ccc(C#N)cn1` [Example 25, N-(5-cyanopyridin-2-yl)-N-methyl-3-(5-(trifluoromethyl)109yridine-2-yl)pyrazolo[1,5-a]pyridine-5-carboxamide], which EC50 [1] is on record?
**A.** 229 nM

**Q.** What about the EC50 [2] of the same compound?
**A.** 7 nM

From patent US8871754B2, “Compounds and compositions for the treatment of parasitic diseases” (IRM LLC, priority 2012, dated 2014)
